Publication PMC6677754, “In silico design and optimization of selective membranolytic anticancer peptides” (Scientific Reports, 2019)
Peptide text beside a SMILES is read from it.

How the values were obtained:
[1] = test system: human erythrocytes; test: Hemolysis assay; format: cell-based; conditions: red cells of human, 1 h
Description: Human erythrocytes were freshly ordered at the Blutspende Zürich. Erythrocytes were washed 3 times with a […] phosphate buffered saline (PBS, Gibco, Thermo Fisher Scientific, Waltham, MA, USA) solution centrifuging at 800 g for 10 min or until the supernatant appeared clear to remove the blood plasma. A 5% v/v erythrocytes : PBS solution was prepared for direct use. For HC50 determination, peptides were dissolved in PBS at an intermediate concentration of 1 mM. A dilution series of the peptide from 200 to 6.25 μM was plated in a round-bottomed 96-well plate in triplicates, with a volume of 50 μL per well. PBS buffer and a solution of 0.1% Triton-X-100 (Fisher Chemical, Loughborough, UK) in PBS were employed as negative and positive controls, respectively. 50 μL of the 5% erythrocyte solution were added in each well and the plates were incubated at 37°C for 1 h. After this time, 100 μL PBS were added to each well and plates were centrifuged at 800 g for 10 min. 100 μL of the supernatant were transferred to a flat-bottomed 96-well plate and the absorbance was measured at 540 nm in a Tecan Infinity M1000 spectrophotometer plate reader. The hemolysis percentage was calculated, considering the absorbance values of the Triton and PBS wells as 100% and 0% hemolysis, respectively.
The resultant sigmoidal curves were analyzed with the drc22 R package using a log-logistic model with 3 fixed parameters to obtain the HC50 values. […]
NCI-60 screening procedure […]
Each peptide was tested in a 5-concentration assay, starting at 10^-4 M and diluting 10-fold to the lowest 10^-8 M concentration. The peptides were incubated for 48 h and the cell concentration was assayed by using the sulforhodamine B assay25 and optical density measurements. The growth inhibition (GI50) value24, measures the growth inhibitory power of the drug agent. The GI50 value is the concentration of the test drug for which the condition in Eq. S1 is met, where T is the optical density of the test well after a 48-h exposure to the peptide, T0 the optical density before applying the peptide drug and C the control optical density of a well where no peptide was applied.

[2] = test system: A549 lung adenocarcinoma cell line; test: Cell viability assay (MTT); format: cell-based, human; conditions: Table S2; MTT, 24 h; mean ± sd; N = 2 independent measurements with six technical replicates each (Figs S6-S8); read-out: A549 EC50 /µM
Description: (§1) 10% fetal bovine serum and 1% penicillin-streptomycin (Thermo Fisher Scientific, Waltham, MA, USA). The cultures were kept at 37°C in a 5% CO2 atmosphere incubator (Thermo Fisher Scientific, Waltham, MA, USA) and split every two to three days to new culture flasks. Cells no older than 20 passages were used for experiments.
(§2) For splitting, the cell culture media was aspirated, the cells were washed with 0.01 M phosphate buffered saline (PBS, Gibco, Thermo Fisher Scientific, Waltham, MA, USA) and trypsin-EDTA (trypsin - ethylene diamine tetraacetic acid, Fisher scientific, UK) was added to the cell layer to detach them from the flask surface. After incubation for 2 min at 37°C, cells were resuspended with an equal volume of DMEM media and centrifuged at 310 g for 5 min at 4°C. After removal of the supernatant the cells were resuspended in DMEM cell media and split into new cell culture flasks at a 1/3 to 1/5 ratio.
(§3) Determination of the anticancer peptides half effective concentration (EC50) was performed by a 3-(4,5-dimethylthiazol-2-yl)-2,5-diphenyltetrazolium bromide (MTT) assay, as described elsewhere21. Briefly, […] were seeded in each well of a 96-well plate and left to adhere and […]
(§4) sulfoxide (DMSO, Fisher Scientific, UK) at an intermediate concentration of 1 mM. The peptides were then diluted in a 2-fold dilution series starting at 100 μM with DMEM culture media. Cells were incubated with the peptide solutions for 24 h. After this time, the cell media was removed and the cells were incubated for 1 h with a 0.5 mg mL−1 MTT solution to allow enough time for formazan crystal formation (Sigma Aldrich, Steinheim, Germany). The supernatant was removed and 100 μL of DMSO were added into each well to resuspend the formazan crystals.
(§5) After manually shaking the plates to completely dissolve the crystals, the absorbance was measured at 540 nm in a Tecan Infinity M1000 spectrophotometer. The cell viability was determined based on the quantification of the color intensity in each culture well, considering the absorbance obtained by the control media without peptides as a 100% survival. The resultant sigmoidal curves were analyzed with the drc22 R package using a log-logistic model

[3] = test system: MCF7 breast adenocarcinoma cell line; test: Cell viability assay (MTT); format: cell-based, human; conditions: Table S2, 24 h, mean ± sd, N = 2 independent measurements with six technical replicates each (Figs S6-S8)
Description: as §1, §2, §3, §4, §5

[4] = test system: noncancer HDMEC primary cells (human dermal microvascular endothelial cells); test: Cell viability assay (MTT); format: cell-based; conditions: Table S2; noncancer primary cells; MTT, 24 h; mean ± sd; N = 2 independent measurements with six technical replicates each (Figs S6-S8)
Description: as §1, §2, §3, §4, §5

Compound | Eryhtr. HC50 /µM [1] | EC50 [2] | EC50 [3] | EC50 [4]
CC[C@H](C)[C@H](NC(=O)[C@H](CC(C)C)NC(=O)[C@@H](N)CCCNC(=N)N)C(=O)N[C@@H](CCCCN)C(=O)N[C@@H](CCCNC(=N)N)C(=O)N[C@@H](CC(C)C)C(=O)N[C@@H](CCCCN)C(=O)N[C@H](C(=O)N[C@@H](Cc1ccccc1)C(=O)N[C@H](C(=O)N[C@@H](CCCNC(=N)N)C(=O)N[C@@H](CCCCN)C(=O)N[C@H](C(=O)N[C@@H](Cc1c[nH]c2ccccc12)C(=O)N[C@@H](CCCCN)C(=O)N[C@@H](Cc1c[nH]c2ccccc12)C(=O)N[C@H](C(=O)NCC(=O)N[C@@H](Cc1c[nH]cn1)C(=O)N[C@@H](Cc1ccccc1)C(N)=O)C(C)C)[C@@H](C)O)C(C)C)[C@@H](C)O [Off7] (H-RLIKRLKTFVRKTWKWVGHF-NH2) | 95 ± 7 µM | 52 ± 2 µM | 39 ± 3 µM | 12 ± 3 µM
CC[C@H](C)[C@H](NC(=O)[C@H](CCCCN)NC(=O)[C@H](CCCCN)NC(=O)[C@@H](NC(=O)[C@@H](NC(=O)[C@@H](N)CCC(N)=O)C(C)C)C(C)C)C(=O)N[C@@H](CCCNC(=N)N)C(=O)N[C@H](C(=O)N[C@@H](Cc1c[nH]c2ccccc12)C(=O)N[C@@H](Cc1ccc(O)cc1)C(=O)N[C@@H](Cc1c[nH]cn1)C(=O)N[C@@H](CCCCN)C(=O)N[C@@H](C)C(=O)N[C@@H](Cc1c[nH]c2ccccc12)C(=O)N[C@@H](Cc1c[nH]cn1)C(=O)N[C@H](C(=O)N[C@@H](CC(C)C)C(=O)NCC(=O)N[C@@H](CCCCN)C(=O)N[C@H](C(N)=O)C(C)C)C(C)C)[C@@H](C)O [Off2.2.1] (H-QVVKKIRTWYHKAWHVLGKV-NH2) | > 200 µM | > 100 µM | 76 ± 15 µM | 96 ± 7 µM
CC[C@H](C)[C@H](NC(=O)[C@H](Cc1c[nH]cn1)NC(=O)[C@H](Cc1c[nH]c2ccccc12)NC(=O)[C@H](C)NC(=O)[C@H](CCCCN)NC(=O)[C@H](CCCNC(=N)N)NC(=O)[C@H](CC(C)C)NC(=O)[C@H](Cc1c[nH]c2ccccc12)NC(=O)[C@@H](NC(=O)[C@H](CCCNC(=N)N)NC(=O)[C@H](Cc1c[nH]c2ccccc12)NC(=O)[C@H](CCCCN)NC(=O)[C@H](CCCCN)NC(=O)[C@H](CC(C)C)NC(=O)[C@H](CC(C)C)NC(=O)[C@@H](N)Cc1c[nH]cn1)[C@@H](C)O)C(=O)N[C@H](C(=O)NCC(=O)N[C@@H](CCCCN)C(=O)N[C@H](C(N)=O)C(C)C)C(C)C [Off2.2.3] (H-HLLKKWRTWLRKAWHIVGKV-NH2) | 59 ± 6 µM | 9 ± 1 µM | 7 ± 1 µM | 6.1 ± 0.5 µM
CC[C@H](C)[C@H](NC(=O)[C@H](CCC(N)=O)NC(=O)[C@H](Cc1ccccc1)NC(=O)[C@H](C)NC(=O)[C@H](CCCCN)NC(=O)[C@H](CCCCN)NC(=O)[C@H](Cc1ccc(O)cc1)NC(=O)[C@H](Cc1c[nH]c2ccccc12)NC(=O)[C@@H](NC(=O)[C@H](CCCCN)NC(=O)[C@@H](NC(=O)[C@H](CCCCN)NC(=O)[C@H](CCCCN)NC(=O)[C@H](Cc1ccccc1)NC(=O)[C@@H](NC(=O)[C@@H](N)CCC(N)=O)[C@@H](C)CC)C(C)C)[C@@H](C)O)C(=O)N[C@@H](CC(C)C)C(=O)NCC(=O)N[C@@H](CCCNC(=N)N)C(=O)N[C@@H](CC(C)C)C(N)=O [Off2.6] (H-QIFKKVKTWYKKAFQILGRL-NH2) | > 100 µM | 12.4 ± 0.1 µM | 9.3 ± 0.2 µM | 21 ± 2 µM
CC[C@H](C)[C@H](NC(=O)[C@H](CCCCN)NC(=O)CNC(=O)[C@@H](NC(=O)[C@H](CC(C)C)NC(=O)[C@H](Cc1c[nH]cn1)NC(=O)[C@H](Cc1c[nH]c2ccccc12)NC(=O)[C@H](C)NC(=O)[C@H](CCCCN)NC(=O)[C@H](CCCCN)NC(=O)[C@@H](NC(=O)[C@H](Cc1c[nH]c2ccccc12)NC(=O)[C@@H](NC(=O)[C@H](CCCNC(=N)N)NC(=O)[C@@H](NC(=O)[C@H](CCCCN)NC(=O)[C@H](CCCCN)NC(=O)[C@@H](NC(=O)[C@@H](NC(=O)[C@@H](N)CCC(N)=O)[C@@H](C)CC)[C@@H](C)CC)C(C)C)[C@@H](C)O)[C@@H](C)CC)[C@@H](C)CC)C(N)=O [Off2.2.7] (H-QIIKKVRTWIKKAWHLIGKI-NH2) | > 100 µM | 12 ± 2 µM | 8 ± 1 µM | 17 ± 1 µM
CC[C@H](C)[C@H](NC(=O)[C@H](CCCNC(=N)N)NC(=O)[C@H](Cc1ccccc1)NC(=O)[C@H](CC(C)C)NC(=O)[C@H](CCCCN)NC(=O)[C@H](CCCCN)NC(=O)[C@H](Cc1c[nH]c2ccccc12)NC(=O)[C@H](Cc1ccc(O)cc1)NC(=O)[C@@H](NC(=O)[C@H](CCCCN)NC(=O)[C@@H](NC(=O)[C@H](CCCCN)NC(=O)[C@H](CCCCN)NC(=O)[C@H](Cc1ccccc1)NC(=O)[C@@H](NC(=O)[C@@H](N)Cc1c[nH]cn1)[C@@H](C)CC)C(C)C)[C@@H](C)O)C(=O)N[C@@H](CC(C)C)C(=O)NCC(=O)N[C@@H](CCCNC(=N)N)C(=O)N[C@@H](Cc1ccccc1)C(N)=O [Off6] (H-HIFKKVKTYWKKLFRILGRF-NH2) | 16 ± 2 µM | 18 ± 2 µM | 12 ± 3 µM | 5 ± 0.7 µM
CC[C@H](C)[C@H](NC(=O)[C@@H](NC(=O)[C@H](Cc1c[nH]cn1)NC(=O)[C@H](Cc1c[nH]c2ccccc12)NC(=O)[C@H](C)NC(=O)[C@H](CCCNC(=N)N)NC(=O)[C@H](CCC(=O)O)NC(=O)[C@H](Cc1ccc(O)cc1)NC(=O)[C@H](Cc1ccc(O)cc1)NC(=O)[C@@H](NC(=O)[C@H](Cc1c[nH]cn1)NC(=O)[C@H](CC(C)C)NC(=O)[C@H](Cc1c[nH]cn1)NC(=O)[C@H](CCCCN)NC(=O)[C@H](CC(C)C)NC(=O)[C@H](Cc1ccccc1)NC(=O)[C@@H](N)CCCNC(=N)N)[C@@H](C)O)C(C)C)C(=O)NCC(=O)N[C@@H](Cc1c[nH]cn1)C(=O)N[C@@H](CC(C)C)C(N)=O [Off2.8] (H-RFLKHLHTYYERAWHVIGHL-NH2) | > 200 µM | > 100 µM | > 100 µM | 2 ± 2 µM
CC[C@H](C)[C@H](NC(=O)[C@H](CCCCN)NC(=O)[C@H](CCCCN)NC(=O)[C@H](CC(C)C)NC(=O)[C@H](Cc1ccccc1)NC(=O)[C@H](CC(=O)O)NC(=O)[C@H](CCCCN)NC(=O)[C@H](Cc1ccccc1)NC(=O)[C@H](CCCCN)NC(=O)[C@H](CCCCN)NC(=O)[C@H](Cc1ccccc1)NC(=O)[C@@H](NC(=O)[C@@H](N)CCCCN)[C@@H](C)CC)C(=O)N[C@@H](Cc1ccccc1)C(=O)N[C@@H](CCC(N)=O)C(=O)N[C@@H](Cc1ccc(O)cc1)C(=O)N[C@@H](CC(C)C)C(=O)NCC(=O)N[C@@H](CCCCN)C(=O)N[C@H](C(N)=O)C(C)C [Off5] (H-KIFKKFKDFLKKIFQYLGKV-NH2) | 15 ± 2 µM | 17.4 ± 0.1 µM | 12.4 ± 0.4 µM | 10.1 ± 0.2 µM
